Assay results as given in US6245778A, “1,6-naphthyridine anti-convulsants” (SmithKline Beecham p.l.c., priority 1997, dated 2001).
Where a name gives a salt, the structure may show the parent alone.

Target: novel receptor obtainable from rat forebrain tissue
Assay: Radioligand binding assay, displacement of [3H]-Compound A from rat forebrain tissue
Conditions: [3H]-Compound A 20 nM, room temperature, 1 hour
Experimental: The affinity of test compounds to the novel receptor site is assessed as follows. Whole forebrain tissue is obtained from rats. The tissue is first homogenised in buffer (usually 50 mM Tris/HCl, pH 7.4). The homogenised tissue is washed by centrifugation and resuspension in the same buffer, then stored at -70° C. until used. […] The final concentration of [3H]-Compound A in the mixture is usually 20 nM. The mixture is incubated at room temperature for 1 hour. [3H]-Compound A bound to the tissue is then separated from unbound [3H]-Compound A by filtration through Whatman GF/B glass fibre filters. The filters are then washed rapidly with ice-cold buffer. The amount of radioactivity bound to the tissue trapped on the filters is measured by addition of liquid scintillation cocktail to the filters followed by counting in a liquid scintillation counter. In order to determine the amount of "specific" binding of [3H]-Compound A, parallel assays are carried out as above in which [3H]-Compound A and tissue are incubated together in the presence of unlabelled Compound A (usually 3 μM). The amount of binding of [3H]-Compound A remaining in the presence of this unlabelled compound is defined as "non-specific" binding. This amount is subtracted from the total amount of [3H]-Compound A binding (i.e. that present in the absence of unlabelled compound) to obtain the amount of "specific" binding of [3H]-Compound A to the novel site. The affinity of the binding of test compounds to the novel site can be estimated by incubating together [3H]-Compound A and tissue in the presence of a range of concentrations of the compound to be tested. The decrease in the level of specific [3H]Compound A binding as a result of competition by increasing concentrations of the compound under test is plotted graphically, and non-linear regression analysis of the resultant curve is used to provide an estimate of compound affinity in terms of pKi value.

SMILES	in vitro binding affinity, pKi
COc1cc(C(C)(C)C)ccc1C(=O)Nc1cnc2c(c1)CN(C)CC2.Cl [Example 3, N-(6-Methyl-5,6,7,8-tetrahydro[1,6]naphthyridin-3-yl)-2-methoxy-4-t-butylbenzamide, monohydrochloride]	> 8.0
CN1CCc2ncc(NC(=O)c3ccc(C(C)(C)C)cc3)cc2C1 [Example 10, N-(6-Methyl-5,6,7,8-tetrahydrol[1,6]naphthyridin-3-yl)-4-t-butylbenzamide, monihydrochloride]	> 8.0
CCOc1ccc(C(=O)Nc2cnc3c(c2)CN(C)CC3)cc1Br [Example 11, N-(6-Methyl-5,6,7 ,8-tetrahydro[1,6]naphthyridin-3-yl)-3-bromo-4-ethoxybenzamide, monohydrochloride]	> 8.0
CCOc1ccc(C(=O)Nc2cnc3c(c2)CN(C)CC3)cc1[N+](=O)[O-].Cl [Example 20, N-(6-Methyl-5,6,7,8-tetrahydro[1,6]naphthyridin-3-yl)-4-ethoxy-3-nitrobenzamide hydrochloride]	> 8.0
CCCOc1ccc(C(=O)Nc2cnc3c(c2)CN(C)CC3)cc1C#N [Example 30, N-(6-Methyl-5,6,7,8-tetrahydro[1,61naphthyridin-3yl)-3-cyano-4-n-propyloxybenzamide, hydrochloride]	> 8.0

Results, then the molecule that gave them:

in vitro binding affinity, pKi	SMILES
> 8.0	COc1ccc(C(=O)Nc2cnc3c(c2)CN(C)CC3)cc1Br.Cl [Example 1, N-(6-Methyl-5,6,7,8-tetrahydro[1,6]naphthyridin-3-yl)-3-bromo-4-methoxybenzamide, monohydrochloride]
> 8.0	CC(C)Oc1ccc(C(=O)Nc2cnc3c(c2)CN(C)CC3)cc1Br.Cl [Example 12, N-(6-Methyl-5,6,7,8-tetrahydro[1,6]naphthyridin-3-yl)-3-bromo-4-iso-propyloxybenzamide, monohydrochloride]
> 8.0	COc1ccc(C(=O)Nc2cnc3c(c2)CN(C)CC3)cc1I.Cl [Example 28, N-(6-Methyl-5,6,7,8-tetrahydro[1,6]naphthyridin-3-yl)-3-iodo-4-methoxybenzamide hydrochloride]
> 8.0	CC(C)Oc1ccc(C(=O)Nc2cnc3c(c2)CN(C)CC3)cc1Cl.Cl [Example 33, N-(6-Methyl-5,6,7,8-tetrahydro[1,6]naphthyridin-3-yl)-3-chloro-4-iso-propyloxybenzamide, hydrochloride]
> 8.0	CC(C)Oc1ccc(C(=O)Nc2cnc3c(c2)CN(C)CC3)cc1C(F)(F)F.Cl [Example 36, N-(6-Methyl-5,6,7,8-tetrahydro[1,6]naphthyridin-3-yl)-4-iso-propyloxy-3-trifluoromethylbenzamide, hydrochloride]

Test system: electrically-induced seizures (tonic seizure threshold, CC50)
Assay: Maximal electroshock seizure (MEST) threshold test
Type: in vivo
Conditions: mice, 10 mg/kg p.o., suspension in methyl cellulose, one hour post dosing

SMILES	increase in seizure threshold (CC50) compared to control
COc1ccc(C(=O)Nc2cnc3c(c2)CN(C)CC3)cc1Br.Cl [Example 1, N-(6-Methyl-5,6,7,8-tetrahydro[1,6]naphthyridin-3-yl)-3-bromo-4-methoxybenzamide, monohydrochloride]	177%
CN1CCc2ncc(NC(=O)c3ccccc3)cc2C1 [Example 2, N-(6-Methyl-5,6,7,8-tetrahydro[1,6]naphthyridin-3-yl)-benzamide]	97%
CCOc1ccc(C(=O)Nc2cnc3c(c2)CN(C)CC3)cc1 [Example 5, N-(6-Methyl-5,6,7,8-tetra hydro[1,6]naphthyridin-3-yl)-4-ethoxybenzamide, monohydrochloride]	106%
